The record followed here is patent US6730687B1, “Substituted benzylthiazolidine-2, 4-dione derivatives” (Kyorin Pharmaceutical Co., Ltd., priority 1999, dated 2004).

The target of data set [1] is T1, ligand-binding domain of human type PPARγ (Homo sapiens, UniProt P37231).
T1 sequence (P37231 238-503 limits assumed): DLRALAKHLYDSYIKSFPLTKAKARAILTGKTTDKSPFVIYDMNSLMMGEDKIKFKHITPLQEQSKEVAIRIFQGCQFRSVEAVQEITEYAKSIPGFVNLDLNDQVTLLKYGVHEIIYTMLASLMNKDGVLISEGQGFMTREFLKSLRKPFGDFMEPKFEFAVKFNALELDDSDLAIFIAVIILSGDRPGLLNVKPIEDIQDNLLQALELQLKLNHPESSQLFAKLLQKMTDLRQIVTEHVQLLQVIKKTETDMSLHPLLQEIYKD
Put plainly: Test of transactivation on peroxisome proliferator-activated receptor (CHO cells, reporter plasmid), PPARγ.
Description: (§1) After 24 hours, CAT activity and β-galactosidase activity were measured.

Data set [2] concerns the target T2, ligand-binding domain of human type PPARα (Homo sapiens, UniProt Q07869).
T2 sequence (Q07869 239-466 limits assumed): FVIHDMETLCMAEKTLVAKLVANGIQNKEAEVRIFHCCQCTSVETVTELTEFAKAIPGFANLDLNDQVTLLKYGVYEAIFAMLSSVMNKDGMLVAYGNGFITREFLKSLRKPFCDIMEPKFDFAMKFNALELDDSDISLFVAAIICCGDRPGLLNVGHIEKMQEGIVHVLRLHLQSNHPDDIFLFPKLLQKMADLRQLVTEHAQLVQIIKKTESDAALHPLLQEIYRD
Description: Test of transactivation on peroxisome proliferator-activated receptor (CHO cells, reporter plasmid), PPARα.
Description: as §1

Where [3] appears, read: read-out: Transactivation action PPARα EC50, CHO cells cotransfected with receptor and reporter plasmids, 24 hours, CAT activity, β-galactosidase internal standard.

The structures appear in SMILES notation. pEC50: −log10 of the molar value. Where two headings read alike, the source gives them in different places.

As to `COc1ccc(CC2SC(=O)NC2=O)cc1NC(=O)Cc1ccc(C(F)(F)F)cc1` (stereo not shown) [Example 15, N-[2-Methoxy-5-[(2,4-dioxothiazolidin-5-yl)methyl]phenyl]-2-[4-(trifluoromethyl)phenyl]acetamide], the melting point was 147 to 149 °C. This compound showed a pEC50 in data set [1] of 5.96. This compound had a pEC50 in data set [2] of 6.07.

With `COc1ccc(CC2SC(=O)NC2=O)cc1CC(=O)Nc1ccc(C(F)(F)F)cc1` (stereo not shown) [Example 6, N-[4-(Trifloromethyl)phenyl]-2-[5-[(2,4-dioxothiazolidin-5-yl)methyl]2-methoxyphenyl]acetamide], the pEC50 in data set [1] (read-out: Transactivation action PPARγ EC50, CHO cells cotransfected with receptor and reporter plasmids, 24 hours, CAT activity, β-galactosidase internal standard) was 5.48; in data set [2] (setting [3]), 6.22.

`CCCCC/C=C\C/C=C\C=C\[C@@H](O)C/C=C\CCCC(=O)O` [(8S)-HETE, reference compound]: the pEC50 in data set [2] (setting [3]) is 5.89.

The compound `COc1ccc(CC2SC(=O)NC2=O)cc1NC(=O)Nc1ccc(C(F)(F)F)cc1` (stereo not shown) [Example 11, 5-[[4-Methoxy-3-[3-[4-(trifluoromethyl)phenyl]ureido]phenyl]methyl]thiazolidinex-2,4-dione] yielded a melting point of 202 to 204 °C. The compound also showed a pEC50 in data set [1] of 6.37. Besides, the pEC50 in data set [2] is 6.26.

For the compound `COc1ccc(CC2SC(=O)NC2=O)cc1C(=O)CCc1ccc(C(F)(F)F)cc1` (stereo not shown) [Example 22, 5-[[3-[3-[4-(Trifluoromethyl)phenyl]propanoyl]-4-methoxynhenyl]methyl]thiazolidine-2,4-dione], the melting point was in the range of 103 to 104.5 °C. This compound gave a pEC50 in data set [1] of 6.40. In data set [2], this compound showed a negative logarithm of the EC50 (pEC50) of 6.10.

As to `COc1ccc(CC2SC(=O)NC2=O)cc1CC(=O)Nc1ccc(Oc2ccccc2)cc1` (stereo not shown) [Example 23, N-[4-(Phenoxy)phenyl]-2-[5-[(2,4-dioxothiazolidin-5-yl)methyl]-2-methoxyphenyl]acetamide], the melting point was in the range of 82 to 84 °C.
